Source: PubChem BioAssay AID248 (DTP/NCI, 2004)
Where “and” joins values, the source holds several entries; their conditions need not be identical. Equal values may be shown once. Inconclusive results and toxic doses are left out. Rule as the data show it: active = T/C of 150% or more; inactive = T/C below 125%.

Test system: L1210 leukemia ip in BDF1 mice, survival T/C
Test: NCI In Vivo Anticancer Drug Screen. Data for tumor model L1210 Leukemia (intraperitoneal) in B6D2F1 (BDF1) mice
Settings: endpoint: mean survival time, higher = longer survival
In short: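 Value reflects the ratio of survival in compound-treated mice to survival in vehicle-treated controls, with both groups carrying the same transplanted tumor.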

[1] = dose: 100.0 mg/kg/injection, schedule: Q01DX001 (ip), vehicle: carboxymethylcellulose (CMC)
[2] = dose: 200.0 mg/kg/injection, schedule: Q01DX001 (ip), vehicle: carboxymethylcellulose (CMC)
[3] = dose: 400.0 mg/kg/injection, schedule: Q01DX001 (ip), vehicle: carboxymethylcellulose (CMC)
[4] = dose: 100.0 mg/kg/injection, schedule: Q01DX001 (ip), vehicle: saline
[5] = dose: 100.0 mg/kg/injection, schedule: Q04DX003 (ip), vehicle: saline
[6] = dose: 100.0 mg/kg/injection, schedule: Q01DX001 (ip), vehicle: Klucel (hydroxypropylcellulose) (HPC)
[7] = dose: 200.0 mg/kg/injection, schedule: Q01DX001 (ip), vehicle: Klucel (hydroxypropylcellulose) (HPC)
[8] = dose: 400.0 mg/kg/injection, schedule: Q01DX001 (ip), vehicle: Klucel (hydroxypropylcellulose) (HPC)
[9] = dose: 200.0 mg/kg/injection, schedule: Q01DX001 (ip), vehicle: saline
[10] = dose: 75.0 mg/kg/injection, schedule: Q01DX001 (ip), vehicle: saline
[11] = dose: 150.0 mg/kg/injection, schedule: Q01DX001 (ip), vehicle: saline
[12] = dose: 400.0 mg/kg/injection, schedule: Q01DX001 (ip), vehicle: saline

Measured: T/C

Nc1cc2c(cc1Cl)-c1ccc([N+](=O)[O-])cc1/C2=N\O
inactive: [1] 104 % of control | [2] 116 % of control | [3] 104 % of control

C=C1C(=O)OC2CC3(C)C(O)CCC(=C)C3C(OC(C)=O)C12 (stereo not given) (tested in a mixture with another compound)
inactive: [4] 104 % of control

CCOC(=O)C1CC[N+](=c2cc(-c3ccc(Cl)cc3)ss2)CC1 (stereo not given)
inactive: [5] 95 % of control | dose: 200.0 mg/kg/injection, schedule: Q04DX003 (ip), vehicle: saline 96 % of control | dose: 400.0 mg/kg/injection, schedule: Q04DX003 (ip), vehicle: saline 101 % of control

CN(C)c1ccc(N=Nc2ccncc2)cc1
inactive: dose: 25.0 mg/kg/injection, schedule: Q01DX009 (ip), vehicle: Klucel (hydroxypropylcellulose) (HPC) 98 % of control | dose: 50.0 mg/kg/injection, schedule: Q01DX009 (ip), vehicle: Klucel (hydroxypropylcellulose) (HPC) 98 % of control | dose: 100.0 mg/kg/injection, schedule: Q01DX009 (ip), vehicle: Klucel (hydroxypropylcellulose) (HPC) 94 % of control

Cc1c2c(cc3c1OCN(Cc1ccccc1)C3)CN(Cc1ccccc1)CO2
inactive: dose: 50.0 mg/kg/injection, schedule: Q01DX001 (ip), vehicle: carboxymethylcellulose (CMC) 105 % of control | [1] 94 % of control | [2] 89 % of control | [3] 91 % of control

CC1(c2cccc3ccccc23)OCC2(CCC2)CO1
inactive: [6] 102 % of control | [7] 98 % of control | [8] 100 % of control

CC(=O)Nc1ccc(C(N)=O)cn1
inactive: dose: 8.0 mg/kg/injection, schedule: Q01DX009 (ip), vehicle: carboxymethylcellulose (CMC) 98 % of control | dose: 16.0 mg/kg/injection, schedule: Q01DX009 (ip), vehicle: carboxymethylcellulose (CMC) 98 % of control | dose: 32.0 mg/kg/injection, schedule: Q01DX009 (ip), vehicle: carboxymethylcellulose (CMC) 98 % of control | dose: 64.0 mg/kg/injection, schedule: Q01DX001 (ip), vehicle: carboxymethylcellulose (CMC) 94 % of control | dose: 64.0 mg/kg/injection, schedule: Q01DX009 (ip), vehicle: carboxymethylcellulose (CMC) 118 % of control | dose: 128.0 mg/kg/injection, schedule: Q01DX001 (ip), vehicle: carboxymethylcellulose (CMC) 92 % of control | dose: 256.0 mg/kg/injection, schedule: Q01DX001 (ip), vehicle: carboxymethylcellulose (CMC) 97 % of control | dose: 512.0 mg/kg/injection, schedule: Q01DX001 (ip), vehicle: carboxymethylcellulose (CMC) 92 % of control

c1ccc(N=P(c2ccccc2)(c2ccccc2)c2ccccc2)cc1
inactive: [4] 94 % of control | [9] 94 % of control

C/C(=N/NC(=O)c1ccc(N)cc1)c1ccc(C)cc1
inactive: dose: 100.0 mg/kg/injection, schedule: Q04DX002 (ip), vehicle: Klucel (hydroxypropylcellulose) (HPC) 110 % of control | dose: 200.0 mg/kg/injection, schedule: Q04DX002 (ip), vehicle: Klucel (hydroxypropylcellulose) (HPC) 89 % of control

CCc1c2cc3c(cc2cc2c4cc5c(cc4cc[n+]12)OCO5)OCO3 (tested in a mixture with another compound)
inactive: dose: 3.13 mg/kg/injection, schedule: Q01DX009 (ip), vehicle: Klucel (hydroxypropylcellulose) (HPC) 122 % of control | dose: 3.13 mg/kg/injection, schedule: Q04DX003 (ip), vehicle: Klucel (hydroxypropylcellulose) (HPC) 113 % of control | dose: 6.25 mg/kg/injection, schedule: Q01DX009 (ip), vehicle: Klucel (hydroxypropylcellulose) (HPC) 110 % of control | dose: 6.25 mg/kg/injection, schedule: Q04DX003 (ip), vehicle: Klucel (hydroxypropylcellulose) (HPC) 110 % of control | dose: 12.5 mg/kg/injection, schedule: Q04DX003 (ip), vehicle: Klucel (hydroxypropylcellulose) (HPC) 113 % of control and 115 % of control

O=c1oc(Cl)c(Cl)c(Cl)c1Cl
inactive: dose: 2.2 mg/kg/injection, schedule: Q01DX Z (ip), vehicle: methylcellulose (MC) 93 % of control

CCC(O)C(CCN(C)C)(CN(C)C)c1ccccc1 (stereo not given)
inactive: dose: 75.0 mg/kg/injection, schedule: Q01DX001 (ip), vehicle: carboxymethylcellulose (CMC) 94 % of control | dose: 150.0 mg/kg/injection, schedule: Q01DX001 (ip), vehicle: carboxymethylcellulose (CMC) 102 % of control

C[N+]1(C2CCC3CCCC2C3=O)CCCC1 (stereo not given)
inactive: [10] 98 % of control | [11] 106 % of control

CC(=O)OCC1OC(OC(C)=O)C(OC(C)=O)C(OC(C)=O)C1OC(C)=O (stereo not given)
inactive: [6] 101 % of control | dose: 100.0 mg/kg/injection, schedule: Q04DX003 (ip), vehicle: Klucel (hydroxypropylcellulose) (HPC) 97 % of control | [7] 94 % of control | dose: 200.0 mg/kg/injection, schedule: Q04DX003 (ip), vehicle: Klucel (hydroxypropylcellulose) (HPC) 93 % of control | [8] 105 % of control | dose: 400.0 mg/kg/injection, schedule: Q04DX003 (ip), vehicle: Klucel (hydroxypropylcellulose) (HPC) 102 % of control

N=c1c2ncn(Cc3cccc(C(F)(F)F)c3)c2ncn1O
inactive: dose: 0.78 mg/kg/injection, schedule: Q01DX009 (ip), vehicle: Klucel (hydroxypropylcellulose) (HPC) 104 % of control | dose: 1.56 mg/kg/injection, schedule: Q01DX009 (ip), vehicle: Klucel (hydroxypropylcellulose) (HPC) 92 % of control | dose: 1.56 mg/kg/injection, schedule: Q04DX003 (ip), vehicle: Klucel (hydroxypropylcellulose) (HPC) 92 % of control | dose: 3.12 mg/kg/injection, schedule: Q01DX009 (ip), vehicle: Klucel (hydroxypropylcellulose) (HPC) 95 % of control | dose: 3.12 mg/kg/injection, schedule: Q04DX003 (ip), vehicle: Klucel (hydroxypropylcellulose) (HPC) 102 % of control

O=C1OC(c2ccccc2)CC1N1CCCCC1 (stereo not given)
inactive: dose: 100.0 mg/kg/injection, schedule: Q01DX001 (ip), vehicle: saline sonified 109 % of control | dose: 200.0 mg/kg/injection, schedule: Q01DX001 (ip), vehicle: saline sonified 105 % of control

CCn1c(=O)cn[nH]c1=O
inactive: dose: 50.0 mg/kg/injection, schedule: Q01DX009 (ip), vehicle: saline 97 % of control | dose: 100.0 mg/kg/injection, schedule: Q01DX009 (ip), vehicle: saline 97 % of control | dose: 200.0 mg/kg/injection, schedule: Q01DX009 (ip), vehicle: saline 94 % of control

CN(C(=O)C1CCCCC1)C1CCCCC1O (stereo not given)
inactive: dose: 50.0 mg/kg/injection, schedule: Q01DX009 (ip), vehicle: saline with Tween-80 101 % of control | dose: 100.0 mg/kg/injection, schedule: Q01DX009 (ip), vehicle: saline with Tween-80 93 % of control | dose: 200.0 mg/kg/injection, schedule: Q01DX009 (ip), vehicle: saline with Tween-80 90 % of control

O=C(c1ccccc1)C1(c2ccccc2)CCP(c2ccccc2)(c2ccccc2)(c2ccccc2)O1 (stereo not given)
inactive: dose: 15.0 mg/kg/injection, schedule: Q01DX001 (ip), vehicle: carboxymethylcellulose (CMC) 93 % of control | dose: 30.0 mg/kg/injection, schedule: Q01DX001 (ip), vehicle: carboxymethylcellulose (CMC) 95 % of control | dose: 60.0 mg/kg/injection, schedule: Q01DX001 (ip), vehicle: carboxymethylcellulose (CMC) 96 % of control

NC1=NC(c2ccccc2)C2=C(N1)C(=O)N(c1ccc(Br)cc1)C2 (stereo not given)
inactive: dose: 18.75 mg/kg/injection, schedule: Q01DX009 (ip), vehicle: saline 88 % of control | dose: 37.5 mg/kg/injection, schedule: Q01DX009 (ip), vehicle: saline 86 % of control | [10] 93 % of control | dose: 75.0 mg/kg/injection, schedule: Q01DX009 (ip), vehicle: saline 91 % of control | [11] 90 % of control | dose: 300.0 mg/kg/injection, schedule: Q01DX001 (ip), vehicle: saline 95 % of control

CC(C)(CBr)C(=O)Cl
inactive: [4] 101 % of control | [9] 106 % of control | [12] 101 % of control

O=N[O-].O=N[O-].[Co].[NH2-].[NH2-].[NH2-].[NH2-]
inactive: dose: 100.0 mg/kg/injection, schedule: Q04DX002 (ip), vehicle: saline with Tween-80 112 % of control

CC1NC(=O)NC(=O)C1CCSCCC1C(=O)NC(=O)NC1C (stereo not given)
inactive: [4] 96 % of control | [9] 109 % of control | [12] 104 % of control

COc1ccc(CCNC2C3CC4CC(C3)CC2C4)cc1OC (stereo not given)
inactive: [5] 94 % of control

CN=C(NC)c1ccc(NC(=O)c2cc(C)cc(C(=O)Nc3ccc(C(=NC)NC)cc3)c2)cc1
inactive: dose: 1.88 mg/kg/injection, schedule: Q01DX Z (ip), vehicle: saline 89 % of control | dose: 3.75 mg/kg/injection, schedule: Q01DX Z (ip), vehicle: saline 91 % of control | dose: 7.5 mg/kg/injection, schedule: Q01DX Z (ip), vehicle: saline 91 % of control | dose: 15.0 mg/kg/injection, schedule: Q01DX Z (ip), vehicle: saline 98 % of control and 107 % of control | dose: 30.0 mg/kg/injection, schedule: Q01DX Z (ip), vehicle: saline 101 % of control
